Square brackets hold non-standard residues; d marks the D form. Ends that are not written are not given here. Peptide text beside a SMILES is read from it. pGlu = O=C1CC[C@@H](C(=O)O)N1; Hme = not defined here
Assays:
adult rats [1] = experiment: Passive avoidance response of adult rats, step-through one trial learning test in a shuttle box; assay type: in vivo
Method: (§1) Biological activities of MEPs of the invention are confirmed by bioassay. Blood pressure measurements and urine output measurements were performed on adult rats after intravenous administration of MEPs under ether anesthesia. Passive avoidance behavior of adult rats was carried out in a step-through one trial learning test in a shuttle box, and brightness discrimination tests were performed in a radiant Y maze. Rats neonatally administered with MEPs of the invention were trained during an immature period and subsequently tested as adults.
(§2) Memory enhancing responses were assessed by two kinds of behavioral records, i.e., passive avoidance response of adult rats in a shuttle box and the performance in a radiant Y maze in the acquisition and retention of brightness discrimination of rats neonatally administered. The results are set out in Table I. All MEPs of the invention show significant positive behavioral responses when rats have received a subcutaneous administration of MEP within the dosage range 1 ng-1 μg per animal. MEPs of the invention show a memory enhancing potency 10-100 times that of AVP.

adult rats [2] = conditions: cited from earlier work
rats = experiment: Brightness discrimination test in a radiant Y maze; assay type: in vivo, rat; conditions: adult rats; oral 20 μg/kg/day for 30 days
Method: as §1, §2
Additionally, oral administration of NLPR to adult rats at a dose of 20 μg/kg/day for 30 days produced a positive brightness discrimination assay.

Compound | Passive Avoidance adult rat effective dose (adult rats [1]) | acquisition of active or passive avoidance responses (adult rats [2]) | extinction of active or passive avoidance responses (adult rats [2]) | brightness discrimination assay (rats)
ZN(Hme)PR: pyroglutamyl-Asn-Hme-Pro-Arg; Hme = Homomethionine (Smethylcysteine) ([pGlu]N[Hme]PR; reading uncertain; also: printed as ZN(Hme)PR) | 10-100 ng/200 g body wt. | – | – | –
NC(=O)CC[C@@H]1NC(=O)[C@H](Cc2ccccc2)NC(=O)[C@H](Cc2ccc(O)cc2)NC(=O)[C@@H](N)CSSC[C@@H](C(=O)N2CCC[C@H]2C(=O)N[C@@H](CCCN=C(N)N)C(=O)NCC(N)=O)NC(=O)[C@H](CC(N)=O)NC1=O [AVP, arginine vasopressin] | 300-1000 ng/200 g body wt. | no effect | retarded | –
CC(=O)N[C@@H](CC(N)=O)C(=O)N[C@@H](CC(C)C)C(=O)N1CCC[C@H]1C(=O)N[C@@H](CCCNC(=N)N)C(N)=O [AcNLPR--NH2] (Ac-NLPR-NH2) | 3-10 ng/200 g body wt. | – | – | –
CC(C)C[C@H](NC(=O)[C@H](CC(N)=O)NC(=O)[C@@H]1CCC(=O)N1)C(=O)N1CCC[C@H]1C(=O)N[C@@H](CCCNC(=N)N)C(=O)O [ZNLPR] ([pGlu]NLPR-OH) | 10 ng/200 g body wt. | – | – | –
CC(C)C[C@H](NC(=O)[C@@H](N)CC(N)=O)C(=O)N1CCC[C@H]1C(=O)N[C@@H](CCCNC(=N)N)C(=O)O [NLPR] (H-NLPR-OH) | 3-10 ng/200 g body wt. | – | – | positive
